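Values below derive from 48-hour exposures of cells grown in 96-well plates, with endpoints linearly interpolated between the two concentrations bracketing the appropriate inhibition level. TGI is the concentration that stops growth completely.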
Key:
Test in all cases: NCI tumour cell line growth inhibition, 48 h
KM12 colon = test system: KM12 colon
DLD-1 colon = test system: DLD-1 colon
NCI-H23 lung = test system: NCI-H23 lung
MALME-3M melanoma = test system: MALME-3M melanoma
CAKI-1 renal = test system: CAKI-1 renal
LOX IMVI melanoma = test system: LOX IMVI melanoma
KM20L2 colon = test system: KM20L2 colon
SF-295 CNS = test system: SF-295 CNS
NCI/ADR-RES ovarian = test system: NCI/ADR-RES ovarian
COLO 205 colon = test system: COLO 205 colon
EKVX NSCLC = test system: EKVX NSCLC
OVCAR-5 ovarian = test system: OVCAR-5 ovarian
SK-MEL-28 melanoma = test system: SK-MEL-28 melanoma
K-562 leukemia = test system: K-562 leukemia
SF-268 CNS = test system: SF-268 CNS
P388/ADR leukemia = test system: P388/ADR leukemia
SNB-19 CNS = test system: SNB-19 CNS
P388 leukemia = test system: P388 leukemia
SK-MEL-2 melanoma = test system: SK-MEL-2 melanoma
NCI-H226 lung = test system: NCI-H226 lung
NCI-H522 lung = test system: NCI-H522 lung
HOP-18 NSCLC = test system: HOP-18 NSCLC
UO-31 renal = test system: UO-31 renal
A549 NSCLC = test system: A549 NSCLC
UACC-257 melanoma = test system: UACC-257 melanoma
OVCAR-8 ovarian = test system: OVCAR-8 ovarian
SN12C renal = test system: SN12C renal
M19-MEL melanoma = test system: M19-MEL melanoma
HOP-92 NSCLC = test system: HOP-92 NSCLC
HCC-2998 colon = test system: HCC-2998 colon
SK-MEL-5 melanoma = test system: SK-MEL-5 melanoma
IGROV1 ovarian = test system: IGROV1 ovarian
HT29 colon = test system: HT29 colon
HCT-116 colon = test system: HCT-116 colon
SNB-78 CNS = test system: SNB-78 CNS
OVCAR-4 ovarian = test system: OVCAR-4 ovarian
HOP-62 NSCLC = test system: HOP-62 NSCLC
RXF 393 renal = test system: RXF 393 renal
SF-539 CNS = test system: SF-539 CNS
SNB-75 CNS = test system: SNB-75 CNS
CCRF-CEM leukemia = test system: CCRF-CEM leukemia
DMS 273 small cell lung = test system: DMS 273 small cell lung
U251 CNS = test system: U251 CNS
MCF7 breast = test system: MCF7 breast
SW-620 colon = test system: SW-620 colon
OVCAR-3 ovarian = test system: OVCAR-3 ovarian
UACC-62 melanoma = test system: UACC-62 melanoma
SN12K1 renal = test system: SN12K1 renal
XF 498 CNS = test system: XF 498 CNS
A498 renal = test system: A498 renal
NCI-H460 lung = test system: NCI-H460 lung
MOLT-4 leukemia = test system: MOLT-4 leukemia
SK-OV-3 ovarian = test system: SK-OV-3 ovarian
HL-60(TB) leukemia = test system: HL-60(TB) leukemia
HCT-15 colon = test system: HCT-15 colon
RPMI-8226 leukemia = test system: RPMI-8226 leukemia
RXF-631 renal = test system: RXF-631 renal
M14 melanoma = test system: M14 melanoma
ACHN renal = test system: ACHN renal
DMS 114 small cell lung = test system: DMS 114 small cell lung
LXFL 529 NSCLC = test system: LXFL 529 NSCLC
SR leukemia = test system: SR leukemia
786-0 renal = test system: 786-0 renal
TK-10 renal = test system: TK-10 renal

Compound: C=CCn1c2ccccc2c2c(C)c3cnccc3c(C)c21
- TGI (KM12 colon): 83.9 µM
- TGI (DLD-1 colon): > 121 µM
- TGI (NCI-H23 lung): 45.3 µM
- TGI (MALME-3M melanoma): 62 µM
- TGI (CAKI-1 renal): 6.75 µM
- TGI (LOX IMVI melanoma): 60 µM
- TGI (KM20L2 colon): 112 µM
- TGI (SF-295 CNS): 52.5 µM
- TGI (NCI/ADR-RES ovarian): 34.4 µM
- TGI (COLO 205 colon): 72.5 µM
- TGI (EKVX NSCLC): 66.1 µM
- TGI (OVCAR-5 ovarian): 69.9 µM
- TGI (SK-MEL-28 melanoma): > 125 µM
- TGI (K-562 leukemia): 52.2 µM
- TGI (SF-268 CNS): 88.7 µM
- TGI (P388/ADR leukemia): 37.3 µM
- TGI (SNB-19 CNS): > 78.2 µM
- TGI (P388 leukemia): 20.8 µM
- TGI (SK-MEL-2 melanoma): > 71 µM
- TGI (NCI-H226 lung): 40.3 µM
- TGI (NCI-H522 lung): 37.2 µM
- TGI (HOP-18 NSCLC): > 125 µM
- TGI (UO-31 renal): 32.8 µM
- TGI (A549 NSCLC): > 97.6 µM
- TGI (UACC-257 melanoma): 41.9 µM
- TGI (OVCAR-8 ovarian): 40.4 µM
- TGI (SN12C renal): > 66.2 µM
- TGI (M19-MEL melanoma): 58 µM
- TGI (HOP-92 NSCLC): 29.8 µM
- TGI (HCC-2998 colon): 104 µM
- TGI (SK-MEL-5 melanoma): 56.9 µM
- TGI (IGROV1 ovarian): 95.3 µM
- TGI (HT29 colon): 124 µM
- TGI (HCT-116 colon): 46.9 µM
- TGI (SNB-78 CNS): 125 µM
- TGI (OVCAR-4 ovarian): 64.2 µM
- TGI (HOP-62 NSCLC): 36.3 µM
- TGI (RXF 393 renal): 24.5 µM
- TGI (SF-539 CNS): 44.5 µM
- TGI (SNB-75 CNS): 57.4 µM
- TGI (CCRF-CEM leukemia): 24.5 µM
- TGI (DMS 273 small cell lung): 37.7 µM
- TGI (U251 CNS): 81.3 µM
- TGI (MCF7 breast): 62.6 µM
- TGI (SW-620 colon): 59.1 µM
- TGI (OVCAR-3 ovarian): 48.6 µM
- TGI (UACC-62 melanoma): 41.2 µM
- TGI (SN12K1 renal): 52.5 µM
- TGI (XF 498 CNS): 28.7 µM
- TGI (A498 renal): 49.8 µM
- TGI (NCI-H460 lung): 37.8 µM
- TGI (MOLT-4 leukemia): 9.82 µM
- TGI (SK-OV-3 ovarian): 38.5 µM
- TGI (HL-60(TB) leukemia): 11.9 µM
- TGI (HCT-15 colon): > 95.5 µM
- TGI (RPMI-8226 leukemia): 29.5 µM

Compound: C/C=C/C=N/N(c1nnc(-c2ccccc2)c(-c2ccccc2)n1)S(=O)(=O)c1ccc(C)cc1
- TGI (KM12 colon): 22.9 µM
- TGI (DLD-1 colon): 32.7 µM
- TGI (NCI-H23 lung): 29.7 µM
- TGI (RXF-631 renal): 73.2 µM
- TGI (MALME-3M melanoma): 22.8 µM
- TGI (CAKI-1 renal): 31.4 µM
- TGI (LOX IMVI melanoma): 13.8 µM
- TGI (KM20L2 colon): 26.1 µM
- TGI (SF-295 CNS): 22.9 µM
- TGI (COLO 205 colon): 35.7 µM
- TGI (EKVX NSCLC): 31.9 µM
- TGI (OVCAR-5 ovarian): 33.5 µM
- TGI (SK-MEL-28 melanoma): 28.7 µM
- TGI (M14 melanoma): 15.8 µM
- TGI (ACHN renal): 24.3 µM
- TGI (DMS 114 small cell lung): 37.6 µM
- TGI (LXFL 529 NSCLC): 19.3 µM
- TGI (K-562 leukemia): > 100 µM
- TGI (SF-268 CNS): 18 µM
- TGI (SR leukemia): 21.1 µM
- TGI (SK-MEL-2 melanoma): 24.1 µM
- TGI (NCI-H226 lung): 31.2 µM
- TGI (NCI-H522 lung): 19.4 µM
- TGI (HOP-18 NSCLC): 27.4 µM
- TGI (UO-31 renal): 19.6 µM
- TGI (A549 NSCLC): 28.1 µM
- TGI (UACC-257 melanoma): 20.9 µM
- TGI (OVCAR-8 ovarian): 20.7 µM
- TGI (SN12C renal): 20.7 µM
- TGI (M19-MEL melanoma): 36.3 µM
- TGI (HOP-92 NSCLC): 31.3 µM
- TGI (HCC-2998 colon): 31.3 µM
- TGI (786-0 renal): 19.2 µM
- TGI (SK-MEL-5 melanoma): 23.1 µM
- TGI (IGROV1 ovarian): 29.3 µM
- TGI (HT29 colon): 24.1 µM
- TGI (HCT-116 colon): 28 µM
- TGI (TK-10 renal): 28.2 µM
- TGI (SNB-78 CNS): 83.2 µM
- TGI (OVCAR-4 ovarian): 28.2 µM
- TGI (SF-539 CNS): 23.8 µM
- TGI (SNB-75 CNS): 19.9 µM
- TGI (CCRF-CEM leukemia): 9.21 µM
- TGI (DMS 273 small cell lung): 29.8 µM
- TGI (U251 CNS): 12.7 µM
- TGI (SW-620 colon): 14.9 µM
- TGI (OVCAR-3 ovarian): 25.2 µM
- TGI (UACC-62 melanoma): 11.6 µM
- TGI (A498 renal): 27.6 µM
- TGI (NCI-H460 lung): 28.3 µM
- TGI (MOLT-4 leukemia): 26.6 µM
- TGI (SK-OV-3 ovarian): 33.8 µM
- TGI (HL-60(TB) leukemia): 6.36 µM
- TGI (HCT-15 colon): 18.6 µM
- TGI (RPMI-8226 leukemia): 36.6 µM

Compound: CCOC(=O)C1=C(Nc2ccccc2)OC/C1=N\NC(=O)Cc1ccccc1
- TGI (KM12 colon): > 50 µM
- TGI (DLD-1 colon): > 50 µM
- TGI (NCI-H23 lung): > 50 µM
- TGI (RXF-631 renal): > 50 µM
- TGI (MALME-3M melanoma): > 50 µM
- TGI (CAKI-1 renal): > 50 µM
- TGI (LOX IMVI melanoma): > 50 µM
- TGI (KM20L2 colon): > 50 µM
- TGI (SF-295 CNS): > 50 µM
- TGI (COLO 205 colon): > 50 µM
- TGI (EKVX NSCLC): > 50 µM
- TGI (OVCAR-5 ovarian): > 50 µM
- TGI (SK-MEL-28 melanoma): > 50 µM
- TGI (M14 melanoma): > 50 µM
- TGI (DMS 114 small cell lung): > 50 µM
- TGI (LXFL 529 NSCLC): > 50 µM
- TGI (K-562 leukemia): > 50 µM
- TGI (SF-268 CNS): > 50 µM
- TGI (SNB-19 CNS): > 50 µM
- TGI (SK-MEL-2 melanoma): > 50 µM
- TGI (NCI-H226 lung): > 50 µM
- TGI (NCI-H522 lung): > 50 µM
- TGI (HOP-18 NSCLC): > 50 µM
- TGI (UO-31 renal): > 50 µM
- TGI (A549 NSCLC): > 50 µM
- TGI (UACC-257 melanoma): > 50 µM
- TGI (OVCAR-8 ovarian): > 50 µM
- TGI (SN12C renal): > 50 µM
- TGI (M19-MEL melanoma): > 50 µM
- TGI (HOP-92 NSCLC): > 50 µM
- TGI (HCC-2998 colon): > 50 µM
- TGI (786-0 renal): > 50 µM
- TGI (SK-MEL-5 melanoma): > 50 µM
- TGI (IGROV1 ovarian): > 50 µM
- TGI (HT29 colon): > 50 µM
- TGI (HCT-116 colon): > 50 µM
- TGI (TK-10 renal): > 50 µM
- TGI (SNB-78 CNS): > 50 µM
- TGI (OVCAR-4 ovarian): > 50 µM
- TGI (HOP-62 NSCLC): > 50 µM
- TGI (RXF 393 renal): > 50 µM
- TGI (SF-539 CNS): > 50 µM
- TGI (SNB-75 CNS): > 50 µM
- TGI (CCRF-CEM leukemia): > 50 µM
- TGI (U251 CNS): > 50 µM
- TGI (SW-620 colon): > 50 µM
- TGI (OVCAR-3 ovarian): > 50 µM
- TGI (UACC-62 melanoma): > 50 µM
- TGI (XF 498 CNS): > 50 µM
- TGI (A498 renal): > 50 µM
- TGI (NCI-H460 lung): > 50 µM
- TGI (MOLT-4 leukemia): > 50 µM
- TGI (SK-OV-3 ovarian): > 50 µM
- TGI (HL-60(TB) leukemia): > 50 µM
- TGI (RPMI-8226 leukemia): > 50 µM

— PubChem BioAssay (NCI)
